Here are results for one compound from PMC3562592 (Journal of the American Chemical Society, 2012).

This test has as its target T1, FAAH (Rattus norvegicus, UniProt P97612).
T1 sequence (P97612 1-579): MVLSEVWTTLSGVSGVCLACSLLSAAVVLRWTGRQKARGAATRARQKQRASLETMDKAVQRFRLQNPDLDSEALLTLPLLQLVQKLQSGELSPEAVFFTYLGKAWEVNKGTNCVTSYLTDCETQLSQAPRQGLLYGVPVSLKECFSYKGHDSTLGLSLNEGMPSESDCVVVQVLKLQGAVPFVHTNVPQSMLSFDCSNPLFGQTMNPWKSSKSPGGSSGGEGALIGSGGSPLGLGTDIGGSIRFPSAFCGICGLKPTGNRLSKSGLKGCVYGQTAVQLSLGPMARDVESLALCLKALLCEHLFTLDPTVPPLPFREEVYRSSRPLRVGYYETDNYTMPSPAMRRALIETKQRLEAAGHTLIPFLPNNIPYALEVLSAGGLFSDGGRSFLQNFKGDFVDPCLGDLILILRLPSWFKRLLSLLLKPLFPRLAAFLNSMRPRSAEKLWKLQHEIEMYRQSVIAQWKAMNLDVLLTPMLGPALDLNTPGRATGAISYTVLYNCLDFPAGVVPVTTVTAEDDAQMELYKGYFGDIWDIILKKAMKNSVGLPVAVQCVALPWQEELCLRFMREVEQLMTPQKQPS
In words: WaterLOGSY NMR binding to FAAH.

For `CC(C(=O)O)c1ccc2c(c1)[nH]c1ccc(Cl)cc12` (racemic) [carprofen, (RS)-2-(6-chloro-9H-carbazol-2-yl)propanoic acid], the “binding to FAAH (WaterLOGSY signals)” value (enzyme pre-incubated with URB597) was “did not alter such binding” and the “binding to FAAH (WaterLOGSY signals)” value (without URB597) is listed as “able to bind FAAH”.
